Active and inactive are the calls of the source. No cut-off for these calls is given here.
Experiments:
[1] = system: BaF3; test: Antiproliferative activity against mouse BaF3 cells harbouring VEGFR2 assessed as inhibition of cell growth measured after 3 days by celltiter-glo luminescent cell viability assay; assay type: functional, cell-based; details: BaF3, 72 h
[2] = Antiproliferative activity against non-FLT3 expressing human OCI-Ly1 cells assessed as inhibition of cell growth measured after 3 days by celltiter-glo luminescent cell viability assay; assay type: functional, cell-based; details: OCI-Ly1, 72 h
[3] = system: A549; test: Antiproliferative activity against non-FLT3 expressing human A549 cells assessed as inhibition of cell growth measured after 3 days by celltiter-glo luminescent cell viability assay; assay type: functional, cell-based; details: A549, 72 h
[4] = system: MOLM-13; test: Antiproliferative activity against human MOLM-13 cells harbouring FLT3-ITD assessed as inhibition of cell growth measured after 3 days by celltiter-glo luminescent cell viability assay; assay type: functional, cell-based; details: MOLM-13, 72 h
[5] = system: HL-60; test: Antiproliferative activity against human HL-60 cells harbouring wild type FLT3 assessed as inhibition of cell growth measured after 3 days by celltiter-glo luminescent cell viability assay; assay type: functional, cell-based; details: HL-60, 72 h
[6] = target: CDK6/cyclin D3 (Homo sapiens) (UniProt P30281+Q00534); test: Inhibition of human CDK6/cyclinD3 at 1 uM by Eurofins-DiscoverX assay; assay type: protein-complex assay
[7] = target: T1, CDK4/Cyclin D3 (Homo sapiens) (UniProt P11802+P30281); test: Inhibition of human CDK4/cyclinD3 at 1 uM by Eurofins-DiscoverX assay; assay type: protein-complex assay
[8] = target: Cyclin-dependent kinase 1/cyclin B1 (Homo sapiens) (UniProt P06493+P14635); test: Inhibition of human CDK1/CyclinB1 assessed as remaining activity at 1 uM by Eurofins-DiscoverX assay relative to control; assay type: protein-complex assay
Sequence of Cyclin-dependent kinase 1/cyclin B1 (Homo sapiens) (P06493 whole entry, looked up): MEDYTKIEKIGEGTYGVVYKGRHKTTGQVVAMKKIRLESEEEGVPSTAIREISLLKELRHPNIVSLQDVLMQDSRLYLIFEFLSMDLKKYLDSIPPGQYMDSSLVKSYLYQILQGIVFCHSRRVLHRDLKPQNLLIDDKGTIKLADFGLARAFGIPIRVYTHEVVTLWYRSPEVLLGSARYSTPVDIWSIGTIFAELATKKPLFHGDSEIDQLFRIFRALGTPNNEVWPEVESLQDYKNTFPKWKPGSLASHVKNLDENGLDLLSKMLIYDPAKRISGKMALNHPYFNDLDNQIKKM
Sequence of Cyclin-dependent kinase 1/cyclin B1 (Homo sapiens) (P14635 whole entry, looked up): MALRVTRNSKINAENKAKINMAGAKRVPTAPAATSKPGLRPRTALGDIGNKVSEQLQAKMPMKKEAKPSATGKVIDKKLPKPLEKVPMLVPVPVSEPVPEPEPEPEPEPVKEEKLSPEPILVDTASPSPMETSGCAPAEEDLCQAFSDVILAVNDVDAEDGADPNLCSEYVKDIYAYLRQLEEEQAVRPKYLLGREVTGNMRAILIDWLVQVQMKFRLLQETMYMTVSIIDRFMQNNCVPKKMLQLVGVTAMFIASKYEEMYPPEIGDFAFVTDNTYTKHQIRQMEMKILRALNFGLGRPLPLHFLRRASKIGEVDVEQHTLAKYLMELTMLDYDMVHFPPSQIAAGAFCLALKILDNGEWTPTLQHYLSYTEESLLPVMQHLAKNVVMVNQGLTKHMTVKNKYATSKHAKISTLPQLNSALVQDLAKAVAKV

[9] = target: Cyclin-dependent kinase 2/cyclin A (Homo sapiens) (UniProt P24941+P20248+P78396); test: Inhibition of human CDK2/CyclinA assessed as remaining activity at 1 uM by Eurofins-DiscoverX assay relative to control; assay type: protein-complex assay
[10] = target: CDK3/Cyclin E (Homo sapiens) (UniProt P24864+Q00526); test: Inhibition of human CDK3/CyclinE assessed as remaining activity at 1 uM by Eurofins-DiscoverX assay relative to control; assay type: protein-complex assay
Sequence of CDK3/Cyclin E (Homo sapiens) (P24864 whole entry, looked up): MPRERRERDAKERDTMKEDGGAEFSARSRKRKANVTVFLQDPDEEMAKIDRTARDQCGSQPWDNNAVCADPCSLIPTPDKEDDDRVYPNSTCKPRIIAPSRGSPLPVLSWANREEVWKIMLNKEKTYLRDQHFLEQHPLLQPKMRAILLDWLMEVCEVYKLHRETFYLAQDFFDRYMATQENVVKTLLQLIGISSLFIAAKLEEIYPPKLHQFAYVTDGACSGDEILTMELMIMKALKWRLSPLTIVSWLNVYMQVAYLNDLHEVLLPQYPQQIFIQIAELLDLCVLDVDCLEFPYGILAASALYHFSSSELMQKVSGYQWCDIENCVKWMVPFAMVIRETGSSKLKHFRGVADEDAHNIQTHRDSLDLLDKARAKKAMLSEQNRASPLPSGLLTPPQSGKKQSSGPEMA
Sequence of CDK3/Cyclin E (Homo sapiens) (Q00526 whole entry, looked up): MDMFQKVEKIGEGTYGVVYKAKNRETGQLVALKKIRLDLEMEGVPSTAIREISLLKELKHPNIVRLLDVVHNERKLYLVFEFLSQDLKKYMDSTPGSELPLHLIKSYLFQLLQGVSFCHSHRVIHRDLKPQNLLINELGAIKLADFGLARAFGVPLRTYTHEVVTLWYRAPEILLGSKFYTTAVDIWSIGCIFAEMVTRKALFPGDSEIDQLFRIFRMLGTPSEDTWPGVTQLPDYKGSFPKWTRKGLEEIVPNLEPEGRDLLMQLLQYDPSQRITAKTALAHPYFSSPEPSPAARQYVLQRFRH

[11] = target: Cyclin-dependent kinase 5/CDK5 activator 1 (Homo sapiens) (UniProt Q00535+Q15078); test: Inhibition of human CDK5/p25 assessed as remaining activity at 1 uM by Eurofins-DiscoverX assay relative to control; assay type: protein-complex assay
Sequence of Cyclin-dependent kinase 5/CDK5 activator 1 (Homo sapiens) (Q00535 whole entry): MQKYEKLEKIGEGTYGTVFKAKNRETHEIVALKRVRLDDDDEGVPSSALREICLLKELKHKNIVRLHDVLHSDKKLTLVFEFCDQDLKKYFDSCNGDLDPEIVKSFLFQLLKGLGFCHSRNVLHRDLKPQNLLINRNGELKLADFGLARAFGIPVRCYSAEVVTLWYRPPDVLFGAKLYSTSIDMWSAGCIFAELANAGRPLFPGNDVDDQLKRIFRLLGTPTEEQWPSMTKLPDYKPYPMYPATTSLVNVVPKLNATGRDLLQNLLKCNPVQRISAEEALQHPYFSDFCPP
Sequence of Cyclin-dependent kinase 5/CDK5 activator 1 (Homo sapiens) (Q15078 99-307 partner limits assumed): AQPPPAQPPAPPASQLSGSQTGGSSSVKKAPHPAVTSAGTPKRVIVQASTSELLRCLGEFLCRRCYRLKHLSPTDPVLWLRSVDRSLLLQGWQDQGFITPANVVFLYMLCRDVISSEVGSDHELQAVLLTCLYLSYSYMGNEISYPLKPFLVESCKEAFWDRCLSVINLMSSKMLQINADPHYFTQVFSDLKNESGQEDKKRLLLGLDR

[12] = target: T1, CDK4/Cyclin D3 (Homo sapiens); test: Inhibition of human CDK4/cyclinD3 assessed as remaining activity at 1 uM by Eurofins-DiscoverX assay relative to control; assay type: protein-complex assay
[13] = target: Vascular endothelial growth factor receptor 1 (Homo sapiens, UniProt P17948); test: Inhibition of FLT1 (unknown origin) using Fluorescein-Poly GT as substrate preincubated for 10 mins followed by substrate addition and measured after 30 mins in presence of ATP by mobility shift assay
[14] = system: BaF3; test: Antiproliferative activity against mouse BaF3 cells harbouring FLT3-ITD-F691L mutant assessed as inhibition of cell growth measured after 3 days by celltiter-glo luminescent cell viability assay; assay type: functional, cell-based; details: BaF3, 72 h
[15] = target: Receptor-type tyrosine-protein kinase FLT3 (Homo sapiens) (UniProt P36888); test: Inhibition of FLT3 phosphorylation in human MOLM-13 cells measured after 2 hrs by Western blot analysis; assay type: cell-based; details: dose 0.01-1 µM
Sequence of Receptor-type tyrosine-protein kinase FLT3 (Homo sapiens) (P36888 whole entry): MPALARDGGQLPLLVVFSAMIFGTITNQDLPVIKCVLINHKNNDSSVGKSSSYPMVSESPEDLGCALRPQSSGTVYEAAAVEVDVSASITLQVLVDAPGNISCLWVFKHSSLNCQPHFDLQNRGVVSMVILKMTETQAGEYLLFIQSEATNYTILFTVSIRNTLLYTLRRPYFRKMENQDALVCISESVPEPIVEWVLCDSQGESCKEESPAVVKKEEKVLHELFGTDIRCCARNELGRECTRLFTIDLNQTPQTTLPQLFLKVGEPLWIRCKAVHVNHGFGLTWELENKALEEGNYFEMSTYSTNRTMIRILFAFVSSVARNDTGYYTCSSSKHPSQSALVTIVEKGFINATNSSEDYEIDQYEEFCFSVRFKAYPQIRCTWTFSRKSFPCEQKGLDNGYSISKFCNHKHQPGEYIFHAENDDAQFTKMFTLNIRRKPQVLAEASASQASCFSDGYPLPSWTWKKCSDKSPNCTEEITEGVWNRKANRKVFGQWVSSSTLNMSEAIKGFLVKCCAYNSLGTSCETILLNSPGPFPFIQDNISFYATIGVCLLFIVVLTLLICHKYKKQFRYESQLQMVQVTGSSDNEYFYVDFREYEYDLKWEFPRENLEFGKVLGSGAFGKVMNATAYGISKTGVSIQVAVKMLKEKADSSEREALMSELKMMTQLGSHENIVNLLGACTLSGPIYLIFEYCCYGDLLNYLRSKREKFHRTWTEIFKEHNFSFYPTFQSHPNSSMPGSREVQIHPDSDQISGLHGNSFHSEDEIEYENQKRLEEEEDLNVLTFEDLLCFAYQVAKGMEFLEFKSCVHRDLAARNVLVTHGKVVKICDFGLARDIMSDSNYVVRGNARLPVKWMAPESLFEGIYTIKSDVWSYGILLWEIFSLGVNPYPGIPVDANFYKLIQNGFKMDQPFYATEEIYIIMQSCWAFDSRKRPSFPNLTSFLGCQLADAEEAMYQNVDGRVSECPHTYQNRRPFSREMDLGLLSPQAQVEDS

[16] = system: MOLM-13; test: Inhibition of STAT5 phosphorylation in human MOLM-13 cells measured after 2 hrs by Western blot analysis; assay type: cell-based; details: dose 0.01-1 µM
[17] = system: MOLM-13; test: Inhibition of STAT5 phosphorylation in human MOLM-13 cells at 0.2 uM measured after 2 hrs by Western blot analysis relative to control; assay type: cell-based
[18] = system: MOLM-13; test: Induction of apoptosis in human MOLM-13 cells assessed as viable cells at 0.1 uM incubated for 48 hrs by Annexin V-FITC/PI staining based flow cytometry analysis (reference value: 91.9%); assay type: functional; details: read-out: Activity
[19] = system: MOLM-13; test: Induction of apoptosis in human MOLM-13 cells assessed as late apoptotic cells at 1 uM incubated for 48 hrs by Annexin V-FITC/PI staining based flow cytometry analysis (reference value: 3.10%); assay type: functional
[20] = system: MOLM-13; test: Induction of apoptosis in human MOLM-13 cells assessed as necrotic cells at 0.1 uM incubated for 48 hrs by Annexin V-FITC/PI staining based flow cytometry analysis (reference value: 0.077%); assay type: functional
[21] = system: MOLM-13; test: Induction of cell cycle arrest in human MOLM-13 cells assessed as accumulation of cells at G1 phase at 0.3 uM incubated for 48 hrs (reference value: 40.3%); assay type: functional
[22] = system: MOLM-13; test: Induction of cell cycle arrest in human MOLM-13 cells assessed as accumulation of cells at G1 phase at 1 uM incubated for 48 hrs (reference value: 40.3%); assay type: functional
[23] = system: MOLM-13; test: Induction of cell cycle arrest in human MOLM-13 cells assessed as accumulation of cells at S phase at 0.3 uM incubated for 48 hrs (reference value: 41.6%); assay type: functional
[24] = system: MOLM-13; test: Induction of cell cycle arrest in human MOLM-13 cells incubated for 48 hrs; assay type: functional, cell-based; details: dose 0.1-1 µM
[25] = Metabolic stability in Beagle dog liver microsomes assessed as intrinsic clearance at 1 uM measured up to 60 mins in presence of NADPH regenerating system by LC-MS/MS analysis; assay type: ADME, Canis lupus familiaris, Microsome; details: read-out: CLH
[26] = Permeability of the compound incubated for 4 hrs by PAMPA method; assay type: ADME; details: read-out: permeability
[27] = target: CYP1A2 (Homo sapiens, UniProt P05177); test: Inhibition of CYP1A2 in human liver microsomes using phenacetin as substrate at 10 uM incubated for 10 mins in presence of NADPH by LC-MS/MS analysis relative to control; assay type: ADME, Microsome; details: probe phenacetin
Sequence of CYP1A2 (P05177 whole entry): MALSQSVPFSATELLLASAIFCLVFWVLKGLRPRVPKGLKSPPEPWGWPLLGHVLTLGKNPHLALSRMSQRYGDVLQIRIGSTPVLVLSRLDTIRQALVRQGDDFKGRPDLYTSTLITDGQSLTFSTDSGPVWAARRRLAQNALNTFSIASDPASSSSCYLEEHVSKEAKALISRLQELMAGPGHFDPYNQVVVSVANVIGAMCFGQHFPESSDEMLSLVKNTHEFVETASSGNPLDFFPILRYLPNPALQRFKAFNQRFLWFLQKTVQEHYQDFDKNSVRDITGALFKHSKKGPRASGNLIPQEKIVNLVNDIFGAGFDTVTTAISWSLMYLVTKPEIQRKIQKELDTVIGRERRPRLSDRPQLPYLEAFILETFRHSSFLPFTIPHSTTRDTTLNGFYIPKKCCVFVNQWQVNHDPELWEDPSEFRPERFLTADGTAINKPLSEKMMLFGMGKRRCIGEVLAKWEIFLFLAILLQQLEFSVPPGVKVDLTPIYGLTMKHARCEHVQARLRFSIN

[28] = target: CYP2D6 (Homo sapiens, UniProt P10635); test: Inhibition of CYP2D6 in human liver microsomes using dextromethorphan as substrate at 10 uM incubated for 10 mins in presence of NADPH by LC-MS/MS analysis relative to control; assay type: ADME, Microsome; details: probe dextromethorphan
Sequence of CYP2D6 (P10635 whole entry): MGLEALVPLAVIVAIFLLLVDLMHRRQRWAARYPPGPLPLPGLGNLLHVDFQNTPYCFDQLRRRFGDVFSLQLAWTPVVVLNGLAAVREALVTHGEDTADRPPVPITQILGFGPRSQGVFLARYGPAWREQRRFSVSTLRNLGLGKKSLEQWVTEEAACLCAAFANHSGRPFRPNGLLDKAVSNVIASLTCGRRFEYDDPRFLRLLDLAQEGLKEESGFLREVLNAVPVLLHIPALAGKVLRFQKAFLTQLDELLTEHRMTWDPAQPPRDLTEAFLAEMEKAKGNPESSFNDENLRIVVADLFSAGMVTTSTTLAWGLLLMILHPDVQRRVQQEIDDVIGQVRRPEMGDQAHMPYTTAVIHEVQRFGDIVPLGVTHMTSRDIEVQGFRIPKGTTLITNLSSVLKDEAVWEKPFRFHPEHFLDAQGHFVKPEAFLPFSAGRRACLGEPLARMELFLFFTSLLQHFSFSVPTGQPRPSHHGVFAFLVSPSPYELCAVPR

[29] = target: CYP3A4 (Homo sapiens, UniProt P08684); test: Inhibition of CYP3A4 in human liver microsomes using midazolam as substrate at 10 uM incubated for 10 mins in presence of NADPH by LC-MS/MS analysis relative to control; assay type: ADME, Microsome; details: probe midazolam
Sequence of CYP3A4 (P08684 whole entry): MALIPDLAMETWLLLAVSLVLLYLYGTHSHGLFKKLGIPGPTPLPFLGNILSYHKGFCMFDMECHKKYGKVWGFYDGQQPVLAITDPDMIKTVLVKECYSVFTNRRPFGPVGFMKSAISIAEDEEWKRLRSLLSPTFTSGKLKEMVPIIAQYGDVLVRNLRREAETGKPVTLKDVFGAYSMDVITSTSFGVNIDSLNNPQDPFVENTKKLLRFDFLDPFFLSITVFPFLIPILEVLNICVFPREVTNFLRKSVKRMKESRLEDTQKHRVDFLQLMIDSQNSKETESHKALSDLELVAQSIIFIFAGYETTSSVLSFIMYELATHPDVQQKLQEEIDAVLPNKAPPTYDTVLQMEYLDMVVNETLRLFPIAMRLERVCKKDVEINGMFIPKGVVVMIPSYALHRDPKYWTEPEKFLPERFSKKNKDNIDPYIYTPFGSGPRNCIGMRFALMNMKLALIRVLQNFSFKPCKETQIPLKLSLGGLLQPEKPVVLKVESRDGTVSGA

[30] = AUC (0 to t) in mouse at 5 mg/kg, iv; assay type: ADME, organism-based; details: in vivo
[31] = AUC (0 to infinity) in mouse at 5 mg/kg, iv; assay type: ADME, organism-based; details: in vivo
[32] = Volume of distribution in mouse at 5 mg/kg, iv; assay type: ADME, organism-based; details: in vivo
[33] = Clearance in mouse at 5 mg/kg, iv; assay type: ADME, organism-based; details: in vivo
[34] = Half life in mouse at 10 mg/kg, po; assay type: ADME, organism-based; details: in vivo
[35] = Cmax in mouse at 10 mg/kg, po; assay type: ADME, organism-based; details: in vivo
[36] = Oral bioavailability in mouse at 10 mg/kg; assay type: ADME, organism-based; details: in vivo
[37] = system: MOLM-13; test: Antitumor activity against human MOLM-13 xenografted in male nude mouse assessed as tumor growth inhibition at 30 mg/kg, po administered once daily for 14 days by vernier caliper method relative to control; assay type: functional; details: MOLM-13, 336 h, time 14 day, read-out: TGI

IC50 [1]: 0.31 µM | IC50 [3]: > 30 µM | IC50 [4]: 0.14 µM | IC50 [5]: 18.9 µM | inhibition [6]: inactive | inhibition [7]: inactive | Activity [8]: 88% | Activity [9]: 88% | Activity [10]: 88% | Activity [11]: 88% | Activity [12]: 88% | IC50 [13]: 0.348 µM | IC50 [14]: 4.9 µM | inhibition [15]: Dose-dependent-effect | microsomal CLint at 1 µM [25]: 11.1 µL/min/mg | Papp at 4 h [26]: 0.86 ×10⁻⁶ cm/s | inhibition at 10 min, 10 µM [27]: 9.5% | inhibition at 10 min, 10 µM [28]: 19.8% | inhibition at 10 min, 10 µM [29]: 34.2% | AUC(0-t) [30]: 2030 ng·h/mL | AUC(0-inf) [31]: 2210 ng·h/mL | Vd [32]: 20.9 L/kg | clearance [33]: 38.8 mL/min/kg | half-life [34]: 1.83 h | Cmax [35]: 306 ng/mL | bioavailability [36]: 32.4%
Compound: Cc1cc(=O)n(-c2cc(Cl)ccc2F)nc1C(=O)Nc1ccc(Oc2ccnc(NC(=O)N3CC(O)C3)c2)c(F)c1
IC50 [2]: 12.3 µM | inhibition [16]: Dose-dependent-effect | inhibition [17]: 100% | viability at 0.1 µM [18]: 90.6% | Activity [19]: 36.2% | Activity [20]: 0.062% | Activity [21]: 75.8% | Activity [22]: 78.2% | Activity [23]: 17.1% | Activity [24]: Dose-dependent-effect | inhibition in vivo at 30 mg/kg [37]: 77.1%

From ChEMBL document CHEMBL6109114, “Design, synthesis, and biological evaluation of 4-(2-fluorophenoxy)pyridine derivatives as novel FLT3-ITD inhibitors” (Eur J Med Chem, 2025)
